Reference: patent US9499493B2, “2,4-pyrimidinediamine compounds and their uses” (Rigel Pharmaceuticals, Inc., priority 2002, dated 2016)
pIC50: −log10 of the molar value.

Legend:
[1] = test system: cultured human mast cells (CHMC); experiment: CHMC low cell density ionomycin activation: tryptase assay; assay type: cell-based
[2] = test system: cultured human mast cells (CHMC); experiment: CHMC low cell density IgE activation: tryptase assay; assay type: cell-based; conditions: anti-IgE
Outline: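 CHMC resuspended in pre-warmed MT buffer at 1000-1500 cells/well (donor-dependent) and preincubated 1 hr at 37° C, then stimulated with anti-IgE for 30 min at 37° C; unstimulated wells got MT alone. Supernatant tryptase activity read with tryptase substrate after 30 min at room temperature.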

SMILES	pIC50 [1]	pIC50 [2]
COC(=O)COc1cccc(Nc2ncc(F)c(Nc3ccc4c(c3)OCCCO4)n2)c1 [R935185, 5-Fluoro-N2-[3-(methoxycarbonylmethyleneoxy)phenyl]-N4-(3,4-propylenedioxyphenyl)-2,4-pyrimidinediamine]	5.18	6.45
OCCOc1ccc(Nc2ncc(F)c(Nc3ccc4c(c3)OCCCO4)n2)cc1 [R935186, 5-Fluoro-N2-[4-(2-hydroxyethoxy)phenyl]-N4-(3,4-propylenedioxyphenyl)-2,4-pyrimidinediamine]	< 5.00	6.68
CCOC(=O)C(C)(Oc1cccc(Nc2nc(Nc3ccc(OC(C)C)cc3)ncc2F)c1)C(=O)OCC [R935187, N4-[3-(1-Bis(ethoxycarbonyl)ethoxy)phenyl]-5-fluoro-N2-[4-isopropoxyphenyl)-2,4-pyrimidinediamine]	< 5.00	5.04
Fc1cnc(Nc2ccc3cn[nH]c3c2)nc1Nc1ccc2cn[nH]c2c1 [R935188, N2,N4-Bis(indazolin-6-yl)-5-fluoro-2,4-pyrimidinediamine]	< 5.00	6.62
Fc1cnc(Nc2ccc3[nH]ncc3c2)nc1Nc1ccc2[nH]ncc2c1 [R935189, N2,N4-Bis(indazolin-5-yl)-5-fluoro-2,4-pyrimidinediamine]	< 5.00	6.21
Fc1cnc(Nc2ccc3cn[nH]c3c2)nc1Nc1ccc2c(c1)OCCO2 [R935190, N4-(3,4-Ethylenedioxyphenyl)-5-fluoro-N2-(indazolin-6-yl)-2,4-pyrimidinediamine]	< 5.00	6.81
Cn1ncc2cc(Nc3ncc(F)c(Nc4ccc5c(cnn5C)c4)n3)ccc21 [R935192, N2,N4-Bis(1-methyl-indazolin-5-yl)-5-fluoro-2,4-pyrimidinediamine]	< 5.00	6.47
CC(C)Oc1ccc(Nc2nc(Nc3ccc4[nH]ncc4c3)ncc2F)cc1 [R935197, 5-Fluoro-N2-(indazoline-5-yl)-N4-(4-isopropoxyphenyl)-2,4-pyrimidinediamine]	< 5.00	6.76
Fc1cnc(Nc2ccc3[nH]ncc3c2)nc1Nc1ccc2c(c1)OCCO2 [R935198, N4-(3,4-Ethylenedioxyphenyl)-5-fluoro-N2-(indazoline-5-yl)-2,4-pyrimidinediamine]	< 5.00	6.90
CNC(=O)COc1cccc(Nc2ncc(F)c(Nc3ccc4c(c3)OCCCO4)n2)c1 [R935202, 5-Fluoro-N2-[3-(N-methylamino)carbonylmethyleneoxyphenyl]-N4-(3,4-propylenedioxyphenyl)-2,4-pyrimidinediamine]	5.01	6.74
CC(C)Oc1ccc(Nc2ncc(F)c(Nc3ccc4c(cnn4C)c3)n2)cc1 [R935203, 5-Fluoro-N2-(4-isopropoxyphenyl)-N4-(1-methyl-indazoline-5-yl)-2,4-pyrimidinediamine]	< 5.00	6.25
Cn1ncc2cc(Nc3nc(Nc4cccc(O)c4)ncc3F)ccc21 [R935204, 5-Fluoro-N2-(3-hydroxyphenyl)-N4-(1-methyl-indazoline-5-yl)-2,4-pyrimidinediamine]	< 5.00	6.26
COC(=O)Cn1ncc2ccc(Nc3ncc(F)c(Nc4ccc5cnn(CC(=O)OC)c5c4)n3)cc21 [R935205, N2,N4-Bis[1-(methoxycarbonyl)methyl-indazoline-6-yl]-5-fluoro-2,4-pyrimidinediamine]	< 5.00	5.53
CNC(=O)Cn1ncc2ccc(Nc3ncc(F)c(Nc4ccc5cnn(CC(=O)NC)c5c4)n3)cc21 [R935206, N2,N4-Bis[1-(N-methylaminocarbonyl)methyl-indazoline-6-yl]-5-fluoro-2,4-pyrimidinediamine]	< 5.00	5.33
COC(=O)c1cc(COc2cccc(Nc3ncc(F)c(Nc4ccc5c(c4)OCCO5)n3)c2)co1 [R935207, N4-(3,4-ethylenedioxyphenyl)-5-fluoro-N2-[3-(2-methoxycarbonyl-fur-4-yl)methyleneoxyphenyl]-2,4-pyrimidinediamine]	< 5.00	< 5.00

Results, then the molecule that gave them:

pIC50 [1]	pIC50 [2]	SMILES
< 5.00	5.89	COC(=O)Cn1ncc2ccc(Nc3ncc(F)c(Nc4ccc5c(c4)OCCO5)n3)cc21 [R935208, N4-(3,4-ethylenedioxyphenyl)-5-fluoro-N2-[1-(methoxycarbonyl)methyl-indazoline-6-yl]-2,4-pyrimidinediamine]
5.99	6.28	COC(=O)COc1ccc(Nc2ncc(F)c(Nc3ccc4c(cnn4C)c3)n2)cc1 [R935209, 5-Fluoro-N2-[4-(methoxycarbonylmethyleneoxy)phenyl]-N4-(1-methyl-indazoline-5-yl)-2,4-pyrimidinediamine]
< 5.00	5.91	COC(=O)Cn1ncc2cc(Nc3ncc(F)c(Nc4ccc5c(cnn5CC(=O)OC)c4)n3)ccc21 [R935211, N2,N4-Bis[1-(methoxycarbonyl)methyl-indazoline-5-yl]-5-fluoro-2,4-pyrimidinediamine]
< 5.00	5.85	CNC(=O)Cn1ncc2ccc(Nc3ncc(F)c(Nc4ccc5c(c4)OCCO5)n3)cc21 [R935212, N4-(3,4-ethylenedioxyphenyl)-5-fluoro-N2-[1-(N-methylaminocarbonyl)methyl-indazoline-6-yl]-2,4-pyrimidinediamine]
5.00	6.21	CNC(=O)c1cc(COc2cccc(Nc3ncc(F)c(Nc4ccc5c(c4)OCCO5)n3)c2)co1 [R935213, N4-(3,4-ethylenedioxyphenyl)-5-fluoro-N2-[3-(2-(N-methylamino)carbonyl-fur-4-yl)methyleneoxyphenyl]-2,4-pyrimidinediamine]
5.26	6.34	COc1cc(Nc2ncc(F)c(Nc3ccc4c(cnn4C)c3)n2)cc(OC)c1 [R935214, 5-Fluoro-N2-(3,5-dimethoxyphenyl)-N4-(1-methyl-indazoline-5-yl)-2,4-pyrimidinediamine]
< 5.00	5.33	COC(=O)Cn1ncc2ccc(Nc3nc(Nc4ccc(OC(C)C)cc4)ncc3F)cc21 [R935218, 5-Fluoro-N2-(4-isopropoxyphenyl)-N4-[1-(methoxycarbonyl)methyl-indazoline-6-yl]-2,4-pyrimidinediamine]
< 5.00	5.27	COC(=O)Cn1ncc2ccc(Nc3nc(Nc4ccc5c(c4)OCCO5)ncc3F)cc21 [R935219, N2-(3,4-Ethylenedioxyphenyl)-5-fluoro-N4-[1-(methoxycarbonyl)methyl-indazoline-6-yl]-2,4-pyrimidinediamine]
< 5.00	5.42	COC(=O)Cn1ncc2ccc(Nc3nc(Nc4cccc(O)c4)ncc3F)cc21 [R935220, 5-Fluoro-N2-(3-hydroxyphenyl)-N4-[1-(methoxycarbonyl)methyl-indazoline-6-yl]-2,4-pyrimidinediamine]
< 5.00	6.22	CNC(=O)Cn1ncc2cc(Nc3ncc(F)c(Nc4ccc5c(c4)OCCO5)n3)ccc21 [R935240, N4-(3,4-Ethylenedioxyphenyl)-5-fluoro-N2-[1-(N-methylaminocarbonyl)methyl-indazoline-5-yl]-2,4-pyrimidinediamine]
< 5.00	5.54	COC(=O)Cn1ncc2cc(Nc3nc(Nc4ccc(OC(C)C)cc4)ncc3F)ccc21 [R935242, 5-Fluoro-N2-(4-isopropoxyphenyl)-N4-[1-(methoxycarbonyl)methyl-indazoline-5-yl]-2,4-pyrimidinediamine]
< 5.00	5.96	OCCn1ncc2ccc(Nc3ncc(F)c(Nc4ccc5c(c4)OCCO5)n3)cc21 [R935248, N4-(3,4-Ethylenedioxyphenyl)-5-fluoro-N2-[1-(2-hydroxyethyl)indazoline-6-yl]-2,4-pyrimidinediamine]
< 5.00	5.96	COC(=O)Cn1ncc2cc(Nc3nc(Nc4ccc5c(c4)OCCO5)ncc3F)ccc21 [R935249, N2-(3,4-Ethylenedioxyphenyl)-5-fluoro-N4-[1-(methoxycarbonyl)methyl-indazoline-5-yl]-2,4-pyrimidinediamine]
< 5.00	5.96	COC(=O)Cn1ncc2cc(Nc3nc(Nc4cccc(O)c4)ncc3F)ccc21 [R935250, 5-Fluoro-N2-(3-hydroxyphenyl)-N4-[1-(methoxycarbonyl)methyl-indazoline-5-yl]-2,4-pyrimidinediamine]
< 5.00	6.43	CC(C)Oc1ccc(Nc2nc(Nc3ccc4c(cnn4CCO)c3)ncc2F)cc1 [R935255, 5-Fluoro-N2-[1-(2-hydroxyethyl)indazoline-5-yl]-N4-(4-isopropoxyphenyl)-2,4-pyrimidinediamine]
< 5.00	6.49	OCCn1ncc2cc(Nc3ncc(F)c(Nc4cccc(O)c4)n3)ccc21 [R935256, 5-Fluoro-N2-[1-(2-hydroxyethyl)indazoline-5-yl]-N4-(3-hydroxyphenyl)-2,4-pyrimidinediamine]
< 5.00	5.92	OCCn1ncc2cc(Nc3nc(Nc4ccc5c(c4)OCCO5)ncc3F)ccc21 [R935258, N2-(3,4-Ethylenedioxyphenyl)-5-fluoro-N4-[1-(2-hydroxyethyl)indazoline-5-yl]-2,4-pyrimidinediamine]
< 5.00	5.75	OCCn1ncc2cc(Nc3nc(Nc4cccc(O)c4)ncc3F)ccc21 [R935259, 5-Fluoro-N4-[1-(2-hydroxyethyl)indazoline-5-yl]-N2-(3-hydroxyphenyl)-2,4-pyrimidinediamine]
< 5.00	6.41	Fc1cnc(Nc2ccc3c(c2)OCCO3)nc1Nc1ccc2cn[nH]c2c1 [R935261, N2-(3,4-Ethylenedioxyphenyl)-5-fluoro-N4-(indazoline-6-yl)-2,4-pyrimidinediamine]
< 5.00	6.29	Oc1cccc(Nc2ncc(F)c(Nc3ccc4cn[nH]c4c3)n2)c1 [R935262, 5-Fluoro-N2-(3-hydroxyphenyl)-N4-(indazoline-6-yl)-2,4-pyrimidinediamine]
< 5.00	6.87	Cc1cc(Nc2ncc(F)c(Nc3ccc4cn[nH]c4c3)n2)cc(Cl)c1O [R935264, N2-(3-Chloro-4-hydroxy-3-methylphenyl)-5-fluoro-N4-(indazoline-6-yl)-2,4-pyrimidinediamine]
